± gives the expanded uncertainty stated by the source.

The first series is described as follows: Molar enthalpy of transition or fusion. The conditions noted are these: Crystal; DSC.
With `OC[C@@H](O)[C@@H](O)[C@H](O)[C@H](O)CO` [D-mannitol], the “Molar enthalpy of transition or fusion” value was 13.8 ± 0.359 kcal/mol.

As to `OC[C@@H](O)[C@@H](O)[C@@H](O)CO` [SRS-1,2,3,4,5-pentanepentol], the “Molar enthalpy of transition or fusion” value turned out to be 8.44 ± 0.217 kcal/mol.

Take `OC[C@@H](O)[C@H](O)[C@H](O)[C@@H](O)CO` [dulcitol]: the “Molar enthalpy of transition or fusion” value was determined as 15.5 ± 0.382 kcal/mol.

`OC[C@@H](O)[C@@H](O)CO` [meso-1,2,3,4-butanetetrol]: the “Molar enthalpy of transition or fusion” value stood at 9.92 ± 0.263 kcal/mol.

In the case of `OC[C@@H](O)[C@H](O)[C@@H](O)CO` [xylitol], the “Molar enthalpy of transition or fusion” value worked out at 9.13 ± 0.263 kcal/mol.

Assay in another series: not given
As to conditions: Crystal; DTA.
Consider `OC[C@@H](O)[C@@H](O)[C@H](O)[C@H](O)CO` [D-mannitol], for which the Normal melting temperature is 167.10 ± 2.1 °C.

Take `OC[C@@H](O)[C@@H](O)[C@@H](O)CO` [SRS-1,2,3,4,5-pentanepentol]: the Normal melting temperature was 100.00 ± 1.1 °C.

On to `OC[C@@H](O)[C@H](O)[C@H](O)[C@@H](O)CO` [dulcitol], for which the Normal melting temperature was 187.30 ± 0.5 °C.

Turning to `OC[C@@H](O)[C@@H](O)CO` [meso-1,2,3,4-butanetetrol], the Normal melting temperature was 118.90 ± 1.1 °C.

For the molecule `OC[C@@H](O)[C@H](O)[C@@H](O)CO` [xylitol], the Normal melting temperature was 95.10 ± 1.1 °C.

The same series, now with this note: Crystal; Infrared thermography.
Turning to `OC[C@@H](O)[C@@H](O)[C@H](O)[C@H](O)CO` [D-mannitol], the Normal melting temperature was 166.00 ± 10 °C.

For the molecule `OC[C@@H](O)[C@@H](O)[C@@H](O)CO` [SRS-1,2,3,4,5-pentanepentol], the Normal melting temperature turned out to be 101.60 ± 10 °C.

For `OC[C@@H](O)[C@H](O)[C@H](O)[C@@H](O)CO` [dulcitol], the Normal melting temperature is 189.50 ± 10 °C.

Take `OC[C@@H](O)[C@@H](O)CO` [meso-1,2,3,4-butanetetrol]: the Normal melting temperature was found to be 121.20 ± 10 °C.

Consider `OC[C@@H](O)[C@H](O)[C@@H](O)CO` [xylitol], for which the Normal melting temperature worked out at 99.00 ± 10 °C.

For the origin of these results see the NIST ThermoML archive (doi:10.1016/j.tca.2015.12.010).
